Test results taken from patent publication EP4603105A1, “PHARMACEUTICAL COMPOSITION CONTAINING CYCLIC COMPOUND HAVING SELECTIVE KRAS INHIBITORY EFFECT AGAINST HRAS AND NRAS” (CHUGAI SEIYAKU KABUSHIKI KAISHA, priority 2022, dated 2024).

Tests used:
[1] = target: GDP-bound NRAS wild-type protein (Homo sapiens, UniProt P01111); test: Binding to NRAS by surface plasmon resonance (SPR), KD and KD ratio to KRAS; settings: ratio of the KD value with respect to GDP-bound NRAS wild-type protein to the KD value with respect to KRAS
Sequence of GDP-bound NRAS wild-type protein (P01111 whole entry): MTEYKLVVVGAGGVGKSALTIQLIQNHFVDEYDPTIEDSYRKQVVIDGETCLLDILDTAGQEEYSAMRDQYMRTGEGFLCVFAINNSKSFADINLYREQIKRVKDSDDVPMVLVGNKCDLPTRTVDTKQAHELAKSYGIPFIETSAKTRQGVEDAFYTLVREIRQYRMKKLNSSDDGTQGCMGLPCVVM
Procedure, shortened: (§1)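 GDP-loaded biotinylated Avi-tag RAS proteins (E. coli-expressed) captured on a Biotin CAPture chip at ~100–300 RU; single-cycle kinetics at 30°C, 100 µL/min, 75 s injections of rising compound concentrations. HBS pH 7.4 running buffer with 1 mM DTT, 10 mM MgCl2, 10 µM GDP, 4% DMSO. KD from 1:1 binding fit.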

HRAS wild-type protein = HRAS wild-type protein (Homo sapiens, UniProt P01112); test: Binding to HRAS by surface plasmon resonance (SPR), KD and KD ratio to KRAS; settings: ratio of the KD value with respect to HRAS wild-type protein to the KD value with respect to KRAS
Sequence of HRAS wild-type protein (P01112 whole entry): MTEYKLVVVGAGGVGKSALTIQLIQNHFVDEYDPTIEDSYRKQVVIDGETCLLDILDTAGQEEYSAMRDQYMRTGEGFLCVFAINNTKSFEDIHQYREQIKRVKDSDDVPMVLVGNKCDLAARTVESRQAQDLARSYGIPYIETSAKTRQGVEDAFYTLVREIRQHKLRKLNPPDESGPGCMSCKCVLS
Procedure, shortened: as §1

[2] = system: human lung cancer strain NCI-H441; assay type: cell-based
Procedure, shortened: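 Readout: […] after the ATP-based reagent. Compound: serial dilutions in dimethyl sulfoxide.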

Structure (SMILES) | IC50 [2] [µM] | NRAS /KRAS [1] | HRAS /KRAS (HRAS wild-type protein)
CC[C@H](C)[C@@H]1NC(=O)[C@H](CC(C)C)N(C)C(=O)C[C@@H](C(=O)N2CCOCC2)N(C)C(=O)[C@H](C2CCCC2)N(C)C(=O)C2(CCCC2)NC(=O)[C@@H]2C[C@H](OC)CN2C(=O)[C@H](CCc2cc(F)c(C(F)(F)F)c(F)c2)NC(=O)CN(C)C(=O)[C@H](Cc2ccc(C(F)(F)F)cc2)N2CCCCC[C@@H](C2=O)N(C)C(=O)CN(C)C1=O [PP0495] | 0.837 | A (a compound having 10 or more and less than 20 is denoted as A) | B (a compound having 3 or more and less than 10 is denoted as B)
CC[C@H](C)[C@@H]1NC(=O)[C@H](CC(C)C)N(C)C(=O)C[C@@H](C(=O)N2CCOCC2)N(C)C(=O)[C@H](C2CCCC2)N(C)C(=O)C2(CC2)NC(=O)[C@@H]2CCCN2C(=O)[C@H](CCc2cc(F)c(C(F)(F)F)c(F)c2)NC(=O)CN(C)C(=O)[C@H](Cc2ccc(C(F)(F)F)cc2)N2CCCCC[C@@H](C2=O)N(C)C(=O)CN(C)C1=O [PP0496] | 0.399 | B (a compound having 3 or more and less than 10 is denoted as B) | B (a compound having 3 or more and less than 10 is denoted as B)
CC[C@H](C)[C@@H]1NC(=O)[C@H](CC(C)C)N(C)C(=O)C[C@@H](C(=O)N2CCOCC2)N(C)C(=O)[C@H](C2CCCC2)N(C)C(=O)C2(CCC2)NC(=O)[C@@H]2CCCN2C(=O)[C@H](CCc2cc(F)c(C(F)(F)F)c(F)c2)NC(=O)CN(C)C(=O)[C@H](Cc2ccc(C(F)(F)F)cc2)N2CCCCC[C@@H](C2=O)N(C)C(=O)CN(C)C1=O [PP0497] | 0.0442 | B (a compound having 3 or more and less than 10 is denoted as B) | B (a compound having 3 or more and less than 10 is denoted as B)
CC[C@H](C)[C@@H]1NC(=O)[C@H](CC(C)C)N(C)C(=O)C[C@@H](C(=O)N2CCOCC2)N(C)C(=O)[C@H](C2CCCC2)N(C)C(=O)C2(CCOCC2)NC(=O)[C@@H]2CCCN2C(=O)[C@H](CCc2cc(F)c(C(F)(F)F)c(F)c2)NC(=O)CN(C)C(=O)[C@H](Cc2ccc(C(F)(F)F)cc2)N2CCCCC[C@@H](C2=O)N(C)C(=O)CN(C)C1=O [PP0502] | 1.82 | A (a compound having 10 or more and less than 20 is denoted as A) | B (a compound having 3 or more and less than 10 is denoted as B)
CC[C@H](C)[C@@H]1NC(=O)[C@H](CC(C)C)N(C)C(=O)C[C@@H](C(=O)N2CCOCC2)N(C)C(=O)[C@H](C2CCCCC2)N(C)C(=O)C2(CCCC2)NC(=O)[C@@H]2CCCN2C(=O)[C@H](CCc2cc(F)c(C(F)(F)F)c(F)c2)NC(=O)CN(C)C(=O)[C@H](Cc2ccc(C(F)(F)F)cc2)N2CCCCC[C@@H](C2=O)N(C)C(=O)CN(C)C1=O [PP0505] | 0.21 | B (a compound having 3 or more and less than 10 is denoted as B) | B (a compound having 3 or more and less than 10 is denoted as B)
CC[C@H](C)[C@@H]1NC(=O)[C@H](CC(C)C)N(C)C(=O)C[C@@H](C(=O)N2CCCC2)N(C)C(=O)[C@H](C2CCCC2)N(C)C(=O)C2(CCCC2)NC(=O)[C@@H]2CCCN2C(=O)[C@H](CCc2cc(F)c(C(F)(F)F)c(F)c2)NC(=O)CN(C)C(=O)[C@H](Cc2ccc(C(F)(F)F)cc2)N2CCCCC[C@@H](C2=O)N(C)C(=O)CN(C)C1=O [PP0509] | 0.109 | B (a compound having 3 or more and less than 10 is denoted as B) | B (a compound having 3 or more and less than 10 is denoted as B)
CC[C@H](C)[C@@H]1NC(=O)[C@H](CC(C)C)N(C)C(=O)C[C@@H](C(=O)N2CCCCC2)N(C)C(=O)[C@H](C2CCCC2)N(C)C(=O)C2(CCCC2)NC(=O)[C@@H]2CCCN2C(=O)[C@H](CCc2cc(F)c(C(F)(F)F)c(F)c2)NC(=O)CN(C)C(=O)[C@H](Cc2ccc(C(F)(F)F)cc2)N2CCCCC[C@@H](C2=O)N(C)C(=O)CN(C)C1=O [PP0510] | 0.391 | B (a compound having 3 or more and less than 10 is denoted as B) | B (a compound having 3 or more and less than 10 is denoted as B)
CC[C@H](C)[C@@H]1NC(=O)[C@H](CC(C)C)N(C)C(=O)C[C@@H](C(=O)N(C)C)N(C)C(=O)[C@H](C2CCCC2)N(C)C(=O)C2(CCC2)NC(=O)[C@@H]2CCCN2C(=O)[C@H](CCc2cc(F)c(C(F)(F)F)c(F)c2)NC(=O)CN(C)C(=O)[C@H](Cc2ccc(C(F)(F)F)cc2)N2CCCCC[C@@H](C2=O)N(C)C(=O)CN(C)C1=O [PP0512] | 0.0294 | B (a compound having 3 or more and less than 10 is denoted as B) | B (a compound having 3 or more and less than 10 is denoted as B)

Continued by falling IC50 [2], values first:

IC50 [2] [µM] | Structure (SMILES) | NRAS /KRAS [1] | HRAS /KRAS (HRAS wild-type protein)
0.705 | CC[C@H](C)[C@@H]1NC(=O)[C@H](CC(C)C)N(C)C(=O)C[C@@H](C(=O)N2CCOCC2)N(C)C(=O)[C@H](CC(F)(F)F)N(C)C(=O)C2(CCCC2)NC(=O)[C@@H]2CCCN2C(=O)[C@H](CCc2cc(F)c(C(F)(F)F)c(F)c2)NC(=O)CN(C)C(=O)[C@H](Cc2ccc(C(F)(F)F)cc2)N2CCCCC[C@@H](C2=O)N(C)C(=O)CN(C)C1=O [PP0506] | B (a compound having 3 or more and less than 10 is denoted as B) | B (a compound having 3 or more and less than 10 is denoted as B)
0.633 | CC[C@H](C)[C@@H]1NC(=O)[C@H](CC(C)C)N(C)C(=O)C[C@@H](C(=O)N2CCOCC2)N(C)C(=O)[C@H](C2CCCC2)N(C)C(=O)C2(CCCC2)NC(=O)[C@H](C)N(CC)C(=O)[C@H](CCc2cc(F)c(C(F)(F)F)c(F)c2)NC(=O)CN(C)C(=O)[C@H](Cc2ccc(C(F)(F)F)cc2)N2CCCCC[C@@H](C2=O)N(C)C(=O)CN(C)C1=O [PP0515] | B (a compound having 3 or more and less than 10 is denoted as B) | B (a compound having 3 or more and less than 10 is denoted as B)
0.311 | CC[C@H](C)[C@@H]1NC(=O)[C@H](CC(C)C)N(C)C(=O)C[C@@H](C(=O)N(C)C)N(C)C(=O)[C@H](C2CCCC2)N(C)C(=O)C2(CCCC2)NC(=O)[C@@H]2CCCN2C(=O)[C@H](CCc2cc(F)c(C(F)(F)F)c(F)c2)NC(=O)CN(C)C(=O)[C@H](Cc2ccc(C(F)(F)F)cc2)N2CCCCC[C@@H](C2=O)N(C)C(=O)CN(CC)C1=O [PP0514] | B (a compound having 3 or more and less than 10 is denoted as B) | B (a compound having 3 or more and less than 10 is denoted as B)
0.283 | CC[C@H](C)[C@@H]1NC(=O)[C@H](CC(C)C)N(C)C(=O)C[C@@H](C(=O)N2CCOCC2)N(C)C(=O)[C@H](C2CCCC2)N(C)C(=O)C(C)(C)NC(=O)[C@@H]2CCCN2C(=O)[C@H](CCc2cc(F)c(C(F)(F)F)c(F)c2)NC(=O)CN(C)C(=O)[C@H](Cc2ccc(C(F)(F)F)cc2)N2CCCCC[C@@H](C2=O)N(C)C(=O)CN(C)C1=O [PP0503] | A (a compound having 10 or more and less than 20 is denoted as A) | B (a compound having 3 or more and less than 10 is denoted as B)
0.238 | CC[C@H](C)[C@@H]1NC(=O)[C@H](CC(C)C)N(CC)C(=O)C[C@@H](C(=O)N2CCOCC2)N(C)C(=O)[C@H](C2CCCC2)N(C)C(=O)C2(CCCC2)NC(=O)[C@@H]2CCCN2C(=O)[C@H](CCc2cc(F)c(C(F)(F)F)c(F)c2)NC(=O)CN(C)C(=O)[C@H](Cc2ccc(C(F)(F)F)cc2)N2CCCCC[C@@H](C2=O)N(C)C(=O)CN(C)C1=O [PP0513] | B (a compound having 3 or more and less than 10 is denoted as B) | B (a compound having 3 or more and less than 10 is denoted as B)
0.147 | CC[C@H](C)[C@@H]1NC(=O)[C@H](CC(C)C)N(C)C(=O)C[C@@H](C(=O)N2CCOCC2)N(C)C(=O)[C@H](C2CCCC2)N(C)C(=O)C2(CCCCC2)NC(=O)[C@@H]2CCCN2C(=O)[C@H](CCc2cc(F)c(C(F)(F)F)c(F)c2)NC(=O)CN(C)C(=O)[C@H](Cc2ccc(C(F)(F)F)cc2)N2CCCCC[C@@H](C2=O)N(C)C(=O)CN(C)C1=O [PP0498] | B (a compound having 3 or more and less than 10 is denoted as B) | B (a compound having 3 or more and less than 10 is denoted as B)
0.0621 | CC[C@H](C)[C@@H]1NC(=O)[C@H](CC(C)C)N(C)C(=O)C[C@@H](C(=O)N(C)C)N(C)C(=O)[C@H](C2CCCC2)N(C)C(=O)C2(CCCC2)NC(=O)[C@@H]2CCCN2C(=O)[C@H](CCc2cc(F)c(C(F)(F)F)c(F)c2)NC(=O)CN(C)C(=O)[C@H](Cc2ccc(C(F)(F)F)cc2)N2CCCCC[C@@H](C2=O)N(C)C(=O)CN(C)C1=O [PP0507] | B (a compound having 3 or more and less than 10 is denoted as B) | B (a compound having 3 or more and less than 10 is denoted as B)
0.0449 | CC[C@H](C)[C@@H]1NC(=O)[C@H](CC(C)C)N(C)C(=O)C[C@@H](C(=O)N2CCOCC2)N(C)C(=O)[C@H](C2CCCC2)N(C)C(=O)C2(CC(F)(F)C2)NC(=O)[C@@H]2CCCN2C(=O)[C@H](CCc2cc(F)c(C(F)(F)F)c(F)c2)NC(=O)CN(C)C(=O)[C@H](Cc2ccc(C(F)(F)F)cc2)N2CCCCC[C@@H](C2=O)N(C)C(=O)CN(C)C1=O [PP0499] | B (a compound having 3 or more and less than 10 is denoted as B) | B (a compound having 3 or more and less than 10 is denoted as B)
